Patent publication US20240050344A1, “Methods of Enhancing Natural Defense in the Oral Cavity” (Colgate-Palmolive Company, priority 2021, published 2024)

Tests used:
[1] = tested on: U937; experiment: Phagocytosis assay with Latex Beads-Rabbit IgG-FITC, U937 cells; format: cell-based; settings: FIG. 6
Excerpt: (§1) Phagocytosis is a very important physiological process which is characterized by the ingestion of foreign particles and killing of microorganisms by phagocytic leukocytes (monocytes, macrophages, granulocytes). The phagocytic leukocytes are part of a first line of natural defense against potential pathogens. Phagocytotic active of phagocytes can be measured using a phagocytosis assay. The phagocytosis assay uses fluorescently-opsonized latex beads which are contacted with phagocytic cells. After maintaining the beads in contact with the cell, fluorescent reading of cells is used to assess the degree of phagocytosis. Thus, the degree of phagocytosis from cells treated with different compounds can be compared quantifiably.
EDTA chelates Zinc. Phagocytotic immune cells were contacted with fluorescently-opsonized latex beads in the presence of ZnCl2 and EDTA to determine the effect addition of zinc-chelating EDTA changes the effects of zinc on the phagocytotic activity of phagocytotic immune cells.
(§2) 96-well plates were seeded with either phagocytic immune cells THP1 (cat #TIB202, ATCC) and U937 (cat #CRL-1593.2, ATCC) at 5×10^4 cells/well in 100 μl of RPMI-1640 medium containing 10 ng/ml phorbol myristic acid (PMA, Sigma) for 48 hr in a CO2 incubator at 37° C.
(§3) Medium was changed with 100 μl/ml of RPMI-1640 (Item #500290, Cayman). U937 cells were treated with ZnCl2 or ZnCl2 and EDTA. THP1 cells were treated with ZnO or ZnO plus EDTA. 10 μl of the Latex Beads-Rabbit IgG-FITC solution were added to each well. Plates were mixed gently and cells were incubated in a CO2 incubator at 37° C. for 24-48 hrs.
(§4) After incubation, plates were centrifuged for 5 minutes at 400×g at room temperature. Supernatant was carefully aspirated. 50 μl of Trypan blue solution was added to each well and plates were incubated for 1-2 mins at room temperature. Plates were centrifuged for 5 minutes at 400×g at room temperature. Supernatant was carefully aspirated. Fluorescent intensity was read using in plate reader at excitation 485/emission 535 nm.

[2] = tested on: THP1; experiment: Phagocytosis assay with Latex Beads-Rabbit IgG-FITC, THP1 cells; format: cell-based; settings: FIG. 7; for phagocytosis activity: versus EDTA control
Excerpt: as §1, §2, §3, §4

For `O=C(O)CN(CCN(CC(=O)O)CC(=O)O)CC(=O)O` [EDTA], the phagocytosis activity ([1]; EDTA alone versus untreated control) was “No difference in phagocytosis activity”.

For `[Cl-].[Cl-].[Zn+2]` [ZnCl2], the phagocytosis activity ([1]; 12.5 μM, versus untreated control) was “more phagocytosis activity than untreated control cells” and the phagocytosis activity ([1]; 25 μM, versus untreated control) was “more phagocytosis activity than untreated control cells”.

For `[O]=[Zn]` [ZnO, zinc oxide], the “phagocytosis activity, comparison among the tested ZnO amounts” value ([2]; 6.25 μM compared with 12.5 μM and 25 μM) was “greatest increase”, the phagocytosis activity ([2]; 6.25 μM) was “more phagocytosis activity than EDTA control cells” and the phagocytosis activity ([2]; 12.5 μM) was “more phagocytosis activity than EDTA control cells”. The phagocytosis activity ([2]; 25 μM) was “more phagocytosis activity than EDTA control cells”.
